Reference: patent US10583119B2, “Compounds, compositions and methods for making the same” (Signum Biosciences, Inc., priority 2008, dated 2020)

System: Ob/Ob Mice
Experiment: Non-fasted glucose levels in ob/ob mice
Assay type: in vivo
From the text: They are also hypometabolic and hypothermic. The obesity is characterized by an increase in both the number and the size of adipocytes. Although hyperphagia contributes to the obesity, homozygotes gain excess weight and deposit excess fat even when restricted to a diet sufficient for normal weight maintenance in lean mice. Mice heterozygous for the Lep^ob mutation appear like wild-type and are lean.
Forty-eight (48) B6.V-Lep^ob/J mice (00632, The Jackson Laboratory, JAX^6 mice), homozygous for the Lep^ob mutation and thirty six (36) controls B6.V-Lep^ob/J-lean, heterozygous for the Lep^ob mutation were used to study the effect of SIG1012 on non-fasted glucose levels. The mice were ear notched for identification and housed in individually and positively ventilated polycarbonate cages with HEPA filtered air at a density of 3 mice per cage. Bed-o-cob corn cob bedding was used and cages were changed every two weeks. The animal room was lighted entirely with artificial fluorescent lighting, with a controlled 12 h light/dark cycle (7 am to 7 pm light). The normal temperature and relative humidity ranges in the animal rooms were 22±4° C. and 50±15%, respectively. The animal rooms were set to have 15 air exchanges per hour. Filtered tap water, acidified to a pH of 2.8 to 3.2, and LabDiet AIN-76A was provided ad libitum.
Following acclimation, mice were assigned to groups A through G according to their body weight and genotype:
A Lean heterozygotes—B6.V-Lep^ob/J-lean Mice Fed Control Diet (AIN-76A);
B Lean heterozygotes—B6.V-Lep^ob/J-lean Mice Fed “Low” Compound I-63 (AIN-76A with 0.001% Compound I-63);
C Lean heterozygotes—B6.V-Lep^ob/J-lean Mice Fed “Medium” Compound I-63 (AIN-76A with 0.1% Compound I-63);
D Obese homozygotes—B6. V-Lep^ob/J Mice Fed Control Diet (AIN-76A);
E Obese homozygotes—B6N-Lep^ob/J Mice Fed “Low” Compound I-63 (AIN-76A with 0.001% Compound I-63); […]
Mice from Groups A through G were maintained on the respective diet for 14 days and blood glucose levels were measured weekly.

## CCCCCCCCCCCCCCCCCCCC(=O)NCCc1c[nH]c2ccc(O)cc12 [Compound I-63, N-(2-(5-hydroxy-1H-indol-3-yl)ethyl)icosanamide]
Heterozygous lean mice control
  effect on non-fasted blood glucose levels: No effect
Homozygous obese mice, compound in diet for 14 days
  reduction in non-fasted blood glucose levels: 26-30%
